Laboratory results taken from PMC4725915, “Ruthenium(II) Complexes with 2-Phenylimidazo[4,5-f][1,10]phenanthroline Derivatives that Strongly Combat Cisplatin-Resistant Tumor Cells” (Scientific Reports, 2016).

Tests used:
A549R cells = assay: Mitochondrial membrane potential (JC-1); type: cell-based, human; settings: different concentrations (0.5, 1.0, 2.0 μM), 24 h
Source text: Mitochondria are the principal organelles related to energy metabolism and ATP synthesis; consequently, resistance against chemotherapeutic drugs can often be traced to the mitochondria. […] Mitochondrial dysfunction is involved in apoptotic cell death, and the loss of mitochondrial membrane potential (MMP, ΔΨm) is a hallmark of mitochondrial dysfunction. […] Confocal microscopy and flow cytometry were used to confirm whether complex 4-induced apoptosis occurred by damaging mitochondria, and the cationic dye JC-1 was used as the MMP-sensitive probe.
A549R cells were cultured in 6-well tissue culture plates for 24 h and treated with complex 4 (0.5, 1.0 and 2.0 μM) for 24 h. After the treatment, the cells were collected and resuspended at 1 × 10^6 cells/mL in a pre-warmed staining working solution containing JC-1 (5 μg/mL) and incubated for 15 min at 37 °C. Subsequently, the cells were washed twice with pre-warmed PBS and analyzed immediately with a flow cytometer on a FACS Canto II (BD Biosciences, USA). Red and green mean fluorescence intensities were analyzed using FlowJo 7.6 software (Tree Star, OR, USA). […] After the treatment described above, the stained cells were visualized under an inverted fluorescence microscope (Zeiss Axio Observer D1). JC-1 fluorescence was measured with single excitation (488 nm) and dual emission (shift from green 530 nm to red 590 nm).

A549 = assay: MTT cytotoxicity assay, A549; type: cell-based, human; settings: A549, 48 h, mean ± SD of three experiments
Method: Compounds 1–4 were evaluated against three tumor cell lines derived from different tissues, including the cervix (HeLa), lung (A549) and cisplatin-resistant lung (A549R) tissues. For comparison, the cytotoxicity of cisplatin was also evaluated. As a control, the toxicities of the complexes were also tested against the normal human cell line (LO2).
The human cervix carcinoma cell line (HeLa), the lung carcinoma cell lines (A549 and A549R), and the human hepatocyte cell line (LO2) were obtained from the Experimental Animal Center at Sun Yat-Sen University (Guangzhou, China). The cells were maintained in Dulbecco’s modified Eagle’s medium (DMEM, Gibco BRL) or Roswell Park Memorial Institute 1640 (RPMI 1640, Gibco BRL) medium supplemented with 10% fetal bovine serum (FBS, Gibco BRL), 100 μg/mL streptomycin, and 100 U/mL penicillin (Gibco BRL) in a humidified incubator under 5% CO2 and 20% O2 at 37 °C. To maintain the resistant phenotype, A549R cells were incubated with 5 μM cisplatin and cultured in drug-free medium for at least a week before use.
The cytotoxicity of the ruthenium complexes and cisplatin were determined by an MTT assay. Briefly, cells were seeded into 96-well microtiter plates at 1 × 10^4 cells per well and grown overnight at 37 °C in a 5% CO2 incubator; then, different concentrations of the complexes in cell culture medium were added to the cultures. The plates were then incubated in an incubator for 48 h under the same conditions. The stock MTT dye solution (15 μL, 5 mg/mL) was added to each well. After 4 h of incubation, the cultures were removed and 150 μL of DMSO was added to each well. The optical density of each well was measured on a microplate spectrophotometer at a wavelength of 595 nm.

[1] = Distribution coefficient (log Po/w), flask-shaking, n-octanol/phosphate buffer; type: physicochemical; settings: n-octanol / phosphate buffer pH 7.4, 37 °C; in words only (Figure S8)
Method: Distribution coefficients (log Po/w) were determined by liquid-liquid extraction between n-octanol (oil) and phosphate buffers (0.2 M, pH 7.4) with the flask-shaking method. N-Octanol and the buffer were mutually saturated with each other for at least 24 h before use. An aliquot of a ruthenium complex stock solution was added to the phosphate buffer concentrations at <10 mg/mL, and the mixture was shaken at 100 rpm for 24 h at 37 °C to allow for adequate partitioning. After the sample was centrifuged at 3000 rpm for 20 min, the aqueous layer was used for ruthenium analysis, and the Ru content in the aqueous layer was measured by ICP-MS and used to calculate the log Po/w.

TrxR = assay: Western blot of TrxR expression in A549R cells; type: cell-based, human; settings: different concentrations, 12 h
Source text: The elevated levels of TrxR in cancers, especially in non-small cell lung cancers, are responsible for drug resistance. The thioredoxin system has a significant influence on intracellular physiological processes, such as antioxidant defense, cell functions, cell apoptosis and cell proliferation. TrxR has previously been identified as a drug target. […] In addition, the expression levels of TrxR in A549R cells in response to the addition of complex 4 were also examined by Western blot analysis.
A549R cells were seeded into 10 cm tissue culture dishes (Corning), incubated for 24 h, and treated with complex 4 for 12 h. The cells were washed with ice-cold PBS and lysed by incubation in radio immune precipitation assay buffer (RIPA) and a protease inhibitor cocktail (Sigma) for 30 min on ice. The lysates were centrifuged at 15000 rpm for 15 min at 4 °C, and the protein concentrations were quantified by a BCA protein assay reagent kit (Sigma). The proteins were separated on precast NuPAGE 4% to 12% polyacrylamide gradient Bis–Tris gels (Invitrogen) under denaturing conditions, transferred to PVDF membranes (Invitrogen), and subjected to Western blot analyses. […] The bound immune complexes were detected using an ECL prime Western blot detection reagent (Amersham Inc., USA). […]

With Ru(phen)(bzq)(tbtfpip)(PF6) [Complex 4] the “mitochondrial membrane potential (MMP)” value (A549R cells) was “loss of MMP”, the IC50 (A549) was 1000 ± 200 nM and the “log Po/w” value [1] was “largest”. For the same substance, the “expression levels of TrxR” value (TrxR) was “downregulated”.
